The text below walks through data of patent US10864201B2, “Heteroaromatic compounds as Vanin inhibitors” (Boehringer Ingelheim International GmbH, priority 2018, dated 2020).

Test [1] concerns the target FLAG-tagged Vanin-1 (AA 22-493, T26I) (Homo sapiens (Human), UniProt O95497, T26I). As to the kind of experiment: Vanin-1 enzymatic assay. In kind it is biochemical. The following applies: formation of pantothenic acid from D-pantethine (3 μM), RapidFire MS; geometric mean in case of multiple measurements; read-out: VNN 1 IC50. As to the method:
The test compounds are dissolved in 100% DMSO at a concentration of 10 mM and in a first step diluted in DMSO to a concentration of 5 mM, followed by serial dilution steps in 100% DMSO. Dilution factor and number of dilution steps may vary according to needs. Typically 8 different concentrations by 1:5 dilutions are prepared, a further intermediate dilutions of the substances is carried out with assay buffer resulting in 1% final DMSO concentration in the assay.
0.1 nM of FLAG-tagged Vanin-1 (AA 22-493, T26I, produced internally) and test compounds are incubated at room temperature for 20 minutes in assay buffer (1 mM DTT, 0.0025% Brij-35, 50 mM HEPES, pH7.5). D-Pantethine (Sigma, Cat #P2125-5G) in assay buffer is added (final concentration 3 μM) and incubated for additional 30 minutes at room temperature. Total assay volume typically is 40 μl but might be adjusted according to needs. Reaction is stopped by adding equal volume of stop solution as the reaction mixture to reach 100 nM HD-pantothenic acid (as an internal standard) and 1% TFA. Assay plates are centrifuged for 2 minutes and the formation of pantothenic acid is detected by RapidFire Mass Spectrometry (mobile phase A: 0.1% formic acid and 0.01% trifluoroacetic acid in water; mobile phase B: 47.5% acetonitrile, 47.5% methanol, 0.1% formic acid and 0.01% trifluoroacetic acid in water) using a C18, 12 μL cartridge (Agilent Cat #G9205A).
The values given in Table I result from measurements of one or more samples. In case of multiple measurements the geometric mean values are given.

The next test relates to Pantetheinase (vanin). As to the kind of experiment: Human Whole Blood assay. It counts as cell-based. The following applies: formation of pantothenic acid after pantethine supplementation, RapidFire MS, read-out: HWB IC50. On the procedure:
Human Whole Blood assay: Pantetheinase (vanin) converts panteheine into pantothenic acid and cysteamine. Accordingly, in the described protocol vanin activity is quantified by formation of pantothenic acid after pantetheine supplementation via pantethine. The assay is applicable to identify vanin inhibitors. Compound stocks were dissolved in DMSO at 10 mM. Further dilutions were performed in RPMI 1640 medium (Gibco, #A-10491-01) and final concentrations in the assay were 0.032 nM-500 nM.
Human blood was drawn into a blood bag (1% heparin, 50 I.E./mL). Blood was aliquoted into cavities of 96-deep-well plates at 290 μL and mixed with 10 μL compound solution or vehicle (30 sec at 1400 rpm on a shaker). Equilibration followed at room temperature, 250 rpm and for 30 min. The assay was started by adding 10 μL of substrate solution (20 μM pantethine in 1 mM DTT, 0.0025% Brij-35, 50 mM HEPES, pH7.5) to each well, except for some blank wells which received […] substrate buffer (1 mM DTT, 0.0025% Brij-35, 50 mM HEPES, pH7.5) only. Samples were thoroughly shaken (30 sec, 1400 rpm) and reaction was allowed to take place at room temperature, 250 rpm and for 5 min. The reaction was stopped by addition of a vanin tool inhibitor in excess (BI-1 total conc. 10 μM). Centrifugation of the plate followed at 4° C., 665 G for 10 min. Then the blood plasma samples (100 μL) were transferred into another 96-deep-well plate and proteins were precipitated (5 min on ice) by adding 100 μL of ice cold precipitation solution (1 μM labelled pantothenic acid (di-β-alanine-13C6,15N2 calcium salt, Sigma, #705837) in acetonitrile). Afterwards the plate was centrifuged (4° C., 3220 G, 10 min) and supernatants (50 μL) were collected into another 96-deep-well plate and mixed (10 sec, 1400 rpm) with 150 μL ice cold formic acid (0.1%, Carl Roth GmbH+Co.KG, #CP03.1). The formation of pantothenic acid is detected by RapidFire Mass Spectrometry. A TripleQuad 6500+ (ABSciex, Germany) was equipped with an LC-1290 system, a RapidFire autosampler (Agilent, Germany) and a C18 cartridge Type C 12 μL (Agilent Cat #G9526-80000). Mobile phase A was consisting of 0.09% formic acid and 0.01% trifluoroacetic acid in water and mobile phase B of 0.09% formic acid and 0.01% trifluoroacetic acid in acetonitrile/methanol/water=47.5/47.5/5.

Sequence of FLAG-tagged Vanin-1 (AA 22-493, T26I) (O95497 22-493 T26I): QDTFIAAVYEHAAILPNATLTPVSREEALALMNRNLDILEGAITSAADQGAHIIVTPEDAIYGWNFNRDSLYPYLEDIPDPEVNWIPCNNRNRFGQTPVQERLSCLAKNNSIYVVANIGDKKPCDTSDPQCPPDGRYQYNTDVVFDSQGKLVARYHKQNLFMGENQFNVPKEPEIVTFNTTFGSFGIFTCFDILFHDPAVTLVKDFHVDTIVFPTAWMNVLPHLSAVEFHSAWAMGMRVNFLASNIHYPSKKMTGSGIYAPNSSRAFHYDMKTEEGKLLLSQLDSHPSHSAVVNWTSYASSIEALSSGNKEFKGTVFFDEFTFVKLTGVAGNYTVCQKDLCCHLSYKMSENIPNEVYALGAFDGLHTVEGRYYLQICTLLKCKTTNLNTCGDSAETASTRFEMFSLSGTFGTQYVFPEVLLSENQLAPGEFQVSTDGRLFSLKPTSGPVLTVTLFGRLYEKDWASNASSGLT

As for `CC(=O)N(C)[C@H]1CCN(C(=O)c2cnc3c(c2)CC(C)(c2ccc(Cl)cc2)N3)C1` (mixture of isomers) [Example 8.1, N-[(3S)-1-[2-(4-Chlorophenyl)-2-methyl-1H,2H,3H-pyrrolo[2,3-b]pyridine-5-carbonyl]pyrrolidin-3-yl]-N-methylacetamide], the IC50 in test [1] came to 0.2 nM; with Pantetheinase (vanin) it was 4.3 nM.
In the case of `CC(=O)N(C)[C@H]1CCN(C(=O)c2cnc3c(c2)CC(C)(C)N3)C1` [Example 1.1, N-[(3S)-1-{2,2-Dimethyl-1H,2H,3H-pyrrolo[2,3-b]pyridine-5-carbonyl}pyrrolidin-3-yl]-N-methylacetamide], the IC50 in test [1] amounted to 2.5 nM.
Regarding `CC1(C)Cc2cc(C(=O)N3CC[C@H](N4CCCC4=O)C3)cnc2N1` [Example 1.2], the values for the IC50 (in test [1]; with Pantetheinase (vanin)) were 1.5 nM and 11.5 nM, respectively.
With `CC1(C)Cc2cc(C(=O)N3CC[C@H](N4CCOC4=O)C3)cnc2N1` [Example 1.3], the IC50 in test [1] came to 1.6 nM.
Same read-out and setting: with `CC1(C)Cc2cc(C(=O)N3CCC4(CCOCC4)C3)cnc2N1` [Example 1.4] the figure was 4.9 nM.
Turning to `CC1(C)Cc2cc(C(=O)N3CC4(CCOCC4)C3)cnc2N1` [Example 1.5], the IC50 in test [1] is 10.4 nM.
Regarding `CN(C(=O)C1CCC1)[C@H]1CCN(C(=O)c2cnc3c(c2)CC(C)(C)N3)C1` [Example 2.1, N-[(3S)-1-{2,2-Dimethyl-1H,2H,3H-pyrrolo[2,3-b]pyridine-5-carbonyl}pyrrolidin-3-yl]-N-methylcyclobutanecarboxamide], the values for the IC50 (in test [1]; with Pantetheinase (vanin)) were 0.9 nM and 2.5 nM, respectively.
The like results for `CN(C(=O)C1(C#N)CC1)[C@H]1CCN(C(=O)c2cnc3c(c2)CC(C)(C)N3)C1` [Example 2.2] were, in that order, 1.1 nM and 9.5 nM.
With `CN(C(=O)C1(C)CCC1)[C@H]1CCN(C(=O)c2cnc3c(c2)CC(C)(C)N3)C1` [Example 2.3], the IC50 in test [1] stood at 4.6 nM.
As to `CN(C(=O)C1CC(F)(F)C1)[C@H]1CCN(C(=O)c2cnc3c(c2)CC(C)(C)N3)C1` [Example 2.4], the IC50 was found to be 0.6 nM in test [1] and 2.8 nM in the test on Pantetheinase (vanin).
Turning to `CN(C(=O)C1CC1)[C@H]1CCN(C(=O)c2cnc3c(c2)CC(C)(C)N3)C1` [Example 2.5], the IC50 in test [1] came to 2.1 nM.
As for `CN(c1ncccn1)[C@H]1CCN(C(=O)c2cnc3c(c2)CC(C)(C)N3)C1` [Example 3.1, N-[(3S)-1-{2,2-Dimethyl-1H,2H,3H-pyrrolo[2,3-b]pyridine-5-carbonyl}pyrrolidin-3-yl]-N-methylpyrimidin-2-amine], the IC50 in test [1] was 2.3 nM; in the test on Pantetheinase (vanin) it was 38 nM.
Consider `C[C@]1(c2cccc(F)c2)Cc2cc(C(=O)N3CC[C@H](N4CCOC4=O)C3)cnc2N1` [Example 4.1, 3-[(3S)-1-[(2R)-2-(3-Fluorophenyl)-2-methyl-1H,2H,3H-pyrrolo[2,3-b]pyridine-5-carbonyl]pyrrolidin-3-yl]-1,3-oxazolidin-2-one], for which the IC50 in test [1] turned out to be 0.1 nM; in the test with Pantetheinase (vanin) it was 1.4 nM.
With `CC(=O)N(C)[C@H]1CCN(C(=O)c2cnc3c(c2)C[C@@](C)(c2cccc(F)c2)N3)C1` [Example 4.2], in test [1], the 50% inhibitory concentration (IC50) was determined as 1.7 nM.
As for `CC(=O)N(C)[C@H]1CCN(C(=O)c2cnc3c(c2)C[C@](C)(c2cccc(F)c2)N3)C1` [Example 4.3], the IC50 in test [1] turned out to be 0.1 nM; in the test with Pantetheinase (vanin) it was 1.4 nM.
For the molecule `CC(=O)N(C)[C@H]1CCN(C(=O)c2cnc3c(c2)C[C@@](C)(c2ccc(F)cc2)N3)C1` [Example 5.4], the IC50 in test [1] stood at 87.1 nM.
On the same count and under the same terms, with `C[C@]1(c2cccc(Cl)c2)Cc2cc(C(=O)N3CC[C@H](N4CCCC4=O)C3)cnc2N1` [Example 7.1, (3′S)-1′-[2-(3-Chlorophenyl)-2-methyl-1H,2H,3H-pyrrolo[2,3-b]pyridine-5-carbonyl]-[1,3′-bipyrrolidine]-2-one] the figure was 0.1 nM; with `CC(=O)N(C)[C@H]1CCN(C(=O)c2cnc3c(c2)C[C@@](C)(c2ccc(Cl)cc2)N3)C1` [Example 9.2, N-[(3S)-1-[(2S)-2-(4-Chlorophenyl)-2-methyl-1H,2H,3H-pyrrolo[2,3-b]pyridine-5-carbonyl]pyrrolidin-3-yl]-N-methylacetamide], 1.4 nM; with `CC(=O)N(C)[C@H]1CCN(C(=O)c2cnc3c(c2)C[C@@](C)(c2ccccc2)N3)C1` [Example 9.4], 25.9 nM.
Same read-out and setting: with `CC(=O)N(C)[C@H]1CCN(C(=O)c2cnc3c(c2)C[C@](C)(c2ccc(C#N)cc2)N3)C1` [Example 10, N-[(3S)-1-[(2R)-2-(4-Cyanophenyl)-2-methyl-1H,2H,3H-pyrrolo[2,3-b]pyridine-5-carbonyl]pyrrolidin-3-yl]-N-methylacetamide] the figure was 0.2 nM.
With `CC1(C)CCc2cc(C(=O)N3CCC4(CCOCC4)C3)cnc2N1` [Example 11.1, 2-(7,7-Dimethyl-5,6,7,8-tetrahydro-1,8-naphthyridine-3-carbonyl)-8-oxa-2-azaspiro[4.5]decane], in test [1], the IC50 is 1.7 nM.
On to `CC1(C)CCc2cc(C(=O)N3CC[C@H](N4CCOC4=O)C3)cnc2N1` [Example 11.5], for which the IC50 in test [1] worked out at 4.3 nM.
For the molecule `CN(C(=O)C1(C#N)CC1)[C@H]1CCN(C(=O)c2cnc3c(c2)CCC(C)(C)N3)C1` [Example 11.7], the IC50 in test [1] turned out to be 4.9 nM.
With `CC(=O)N(C)[C@H]1CCN(C(=O)c2cnc3c(c2)CCC(c2ccccc2)N3)C1` (stereo partly drawn) [Example 12.1, N-Methyl-N-[(3S)-1-(7-phenyl-5,6,7,8-tetrahydro-1,8-naphthyridine-3-carbonyl)pyrrolidin-3-yl]acetamide], in test [1], the IC50 came out at 20.3 nM.
For the molecule `CC(=O)N(C)[C@H]1CCN(C(=O)c2cnc3c(c2)CCCCN3)C1` [Example 12.3], the IC50 in test [1] is 0.4 nM.
On the same count and under the same terms, next, `CC(=O)N(C)[C@H]1CCN(C(=O)c2cnc3c(c2)CCCC(C)(C)N3)C1` [Example 12.4]: 2.5 nM; `CC1(C)CCCc2cc(C(=O)N3CC[C@H](N4CCCC4=O)C3)cnc2N1` [Example 12.5]: 1.5 nM; `CN(C(=O)C1CC1)[C@H]1CCN(C(=O)c2cnc3c(c2)CCCC(C)(C)N3)C1` [Example 12.6]: 2.7 nM.
As for `CC1(C)CCCc2cc(C(=O)N3CC[C@H](N4CCOC4=O)C3)cnc2N1` [Example 12.7], the IC50 in test [1] is 1.4 nM.
The same measure, in the same setting: next, `CN(C(=O)C1CCC1)[C@H]1CCN(C(=O)c2cnc3c(c2)CC[C@](C)(c2cncnc2)N3)C1` [Example 13.1, N-methyl-N-[(3S)-1-[(7R)-7-Methyl-7-(pyrimidin-5-yl)-5,6,7,8-tetrahydro-1,8-naphthyridine-3-carbonyl]pyrrolidin-3-yl]cyclobutanecarboxamide]: 0.2 nM; `CN(C(=O)C1CCC1)[C@H]1CCN(C(=O)c2cnc3c(c2)CC[C@@](C)(c2cncnc2)N3)C1` [Example 13.2, N-methyl-N-[(3S)-1-[(7S)-7-Methyl-7-(pyrimidin-5-yl)-5,6,7,8-tetrahydro-1,8-naphthyridine-3-carbonyl]pyrrolidin-3-yl]cyclobutanecarboxamide]: 23.5 nM.
As for `CN(C(=O)C1CC1)[C@H]1CCN(C(=O)c2cnc3c(c2)CC[C@](C)(c2cncnc2)N3)C1` [Example 13.3], the IC50 in test [1] stood at 0.3 nM.
For the molecule `CN(C(=O)C1CC1)[C@H]1CCN(C(=O)c2cnc3c(c2)CC[C@@](C)(c2cncnc2)N3)C1` [Example 13.4], in test [1], the IC50 turned out to be 11.5 nM.
